Toxic doses and inconclusive results are not listed. Residues, ends and D or L forms follow the SMILES beside them. *: point of attachment. Cbz = O=C(OCc1ccccc1)*; Bn = c1ccc(C*)cc1
Tested on: BDF1 mice, P388 leukemia ip, median survival T/C
Assay: NCI In Vivo Anticancer Drug Screen. Data for tumor model P388 Leukemia (intraperitoneal) in B6D2F1 (BDF1) mice
Conditions: endpoint: median survival time, higher = longer survival
Summary of the method: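 Vehicle-dosed animals serve as the reference; survival of compound-dosed, tumour-implanted mice is divided by it.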

[1] = dose: 100.0 mg/kg/injection, schedule: Q01DX009 (ip), vehicle: saline
[2] = dose: 200.0 mg/kg/injection, schedule: Q01DX009 (ip), vehicle: saline
[3] = dose: 100.0 mg/kg/injection, schedule: Q01DX009 (ip), vehicle: saline with Tween-80
[4] = dose: 50.0 mg/kg/injection, schedule: Q01DX009 (ip), vehicle: saline with Tween-80

For ClCCN(CCCN(CCCl)c1ccccc1)c1ccccc1, the T/C (dose: 100.0 mg/kg/injection, schedule: Q01DX001 (ip), vehicle: saline + alcohol) was 118 % of control, the T/C (dose: 200.0 mg/kg/injection, schedule: Q01DX001 (ip), vehicle: saline with Tween-80) was 156 % of control and the T/C (dose: 400.0 mg/kg/injection, schedule: Q01DX001 (ip), vehicle: saline + alcohol) was 151 % of control. The T/C (dose: 400.0 mg/kg/injection, schedule: Q01DX001 (ip), vehicle: saline with Tween-80) was 166 % of control and the T/C (dose: 800.0 mg/kg/injection, schedule: Q01DX001 (ip), vehicle: saline with Tween-80) was 205 % of control.
For CNC1C(OC2C(OC3C(O)C(O)C(O)C(O)C3O)OC(C)C2(O)CO)OC(CO)C(O)C1O (centres undefined) (tested in a mixture with another compound), the T/C [1] was 100 % of control, the T/C [2] was 100 % of control and the T/C (dose: 400.0 mg/kg/injection, schedule: Q01DX009 (ip), vehicle: saline) was 100 % of control.
CO/C=C1\Cc2cc(OC)c(OC)cc2C1=O was tested, and the T/C [3] was 90 % of control, the T/C (dose: 200.0 mg/kg/injection, schedule: Q01DX009 (ip), vehicle: saline with Tween-80) was 100 % of control and the T/C (dose: 400.0 mg/kg/injection, schedule: Q01DX009 (ip), vehicle: saline with Tween-80) was 109 % of control.
In the case of C[N+]1(C)C2CC(=O)CC1C1CC12 (centres undefined) (tested in a mixture with another compound), the T/C (dose: 25.0 mg/kg/injection, schedule: Q01DX009 (ip), vehicle: saline) is reported as 99 % of control, the T/C (dose: 50.0 mg/kg/injection, schedule: Q01DX009 (ip), vehicle: saline) is reported as 106 % of control and the T/C [1] is reported as 106 % of control. The T/C [2] was 106 % of control.
OC1OC2COC(c3ccccc3)OC2C(O)C1O (centres undefined) was tested, and the T/C (dose: 75.0 mg/kg/injection, schedule: Q01DX009 (ip), vehicle: saline with Tween-80) was 107 % of control, the T/C (dose: 150.0 mg/kg/injection, schedule: Q01DX009 (ip), vehicle: saline with Tween-80) was 94 % of control and the T/C (dose: 300.0 mg/kg/injection, schedule: Q01DX009 (ip), vehicle: saline with Tween-80) was 91 % of control.
In the case of CCC[CH2][Sn]1([CH2]CCC)[O]OC(C)(CC)[O]1 (centres undefined), the T/C (dose: 0.69 mg/kg/injection, schedule: Q01DX009 (ip), vehicle: saline with Tween-80) is reported as 108 % of control, the T/C (dose: 1.04 mg/kg/injection, schedule: Q01DX009 (ip), vehicle: saline with Tween-80) is reported as 104 % of control and the T/C (dose: 1.56 mg/kg/injection, schedule: Q01DX009 (ip), vehicle: saline with Tween-80) is reported as 120 % of control. The T/C (dose: 2.35 mg/kg/injection, schedule: Q01DX009 (ip), vehicle: saline with Tween-80) was 104 % of control.
CC(C)CC(NC(=O)C1CCCN1C(=O)C(CSCc1ccccc1)NC(=O)C(CC(N)=O)NC(=O)C(CCC(N)=O)NC(=O)OCc1ccccc1)C(=O)NCC(N)=O (centres undefined) (Cbz-QNC(Bn)PLG-NH2; configuration not given here) was tested, and the T/C (dose: 100.0 mg/kg/injection, schedule: Q04DX003 (ip), vehicle: Klucel (hydroxypropylcellulose) (HPC)) was 105 % of control, the T/C (dose: 200.0 mg/kg/injection, schedule: Q04DX003 (ip), vehicle: Klucel (hydroxypropylcellulose) (HPC)) was 102 % of control and the T/C (dose: 400.0 mg/kg/injection, schedule: Q04DX003 (ip), vehicle: Klucel (hydroxypropylcellulose) (HPC)) was 98 % of control.
For CCOC(=O)CSc1sc(C(=O)OCC)c(N)c1C#N, the T/C (dose: 12.5 mg/kg/injection, schedule: Q01DX009 (ip), vehicle: saline with Tween-80) was 99 % of control, the T/C (dose: 25.0 mg/kg/injection, schedule: Q01DX009 (ip), vehicle: saline with Tween-80) was 99 % of control and the T/C [4] was 99 % of control.
For COC(=O)CCC(C)C1CCC2C3CCC4CC(SC(=N)N)CCC4(C)C3CCC12C (centres undefined), the T/C (dose: 1.56 mg/kg/injection, schedule: Q01DX009 (ip), vehicle: suspension in saline) was 93 % of control, the T/C (dose: 3.13 mg/kg/injection, schedule: Q01DX009 (ip), vehicle: suspension in saline) was 100 % of control and the T/C (dose: 6.25 mg/kg/injection, schedule: Q01DX009 (ip), vehicle: suspension in saline) was 109 % of control. For the same compound, the T/C [4] was 105 % of control and the T/C [3] was 103 % of control.
C=C1[C@@H](O)[C@]2(O)OC[C@@]34[C@H]1[C@@H](OC(=O)C(C)CC)C(=O)O[C@@H]3C[C@H]1C(C)=CC(=O)[C@@H](O)[C@]1(C)[C@@H]24 (some centres undefined) was tested, and the T/C (dose: 0.5 mg/kg/injection, schedule: Q01DX009 (ip), vehicle: saline with Tween-80) was 184 % of control, the T/C (dose: 1.0 mg/kg/injection, schedule: Q01DX009 (ip), vehicle: saline with Tween-80) was 159 % of control and the T/C (dose: 1.0 mg/kg/injection, schedule: Q01DX009 (ip), vehicle: saline) was 153 % of control. For the same compound, the T/C (dose: 2.0 mg/kg/injection, schedule: Q01DX009 (ip), vehicle: saline with Tween-80) was 178 % of control, the T/C (dose: 4.0 mg/kg/injection, schedule: Q01DX009 (ip), vehicle: saline) was 166 % of control and the T/C (dose: 8.0 mg/kg/injection, schedule: Q01DX009 (ip), vehicle: saline) was 95 % of control.

Source: PubChem BioAssay AID328 (DTP/NCI, 2004)
